This is an account of results in article PMC6354011 (Scientific Reports, 2019).

Several values for one entry are separate records, joined by “and”; a condition that tells them apart may be missing. Identical values can stand only once. Like-named read-outs stand apart in the source and are kept apart here.

In assay [1] the target is T1, Electric eel acetylcholinesterase (AChE, EC 3.1.1.7) (Electrophorus electricus, UniProt O42275).
T1 construct: purchased Sigma-Aldrich (USA)
The experiment in a line: biochemical. From the text: (§1) Ellman’s colorimetric method with minor modification was employed in the determination of AChE and BChE inhibitory activities. Electric eel acetylcholinesterase (AChE, EC 3.1.1.7), equine serum butyrylcholinesterase (BChE, EC 3.1.1.8), 5,5′-Dithiobis(2-nitrobenzoic acid) (DTNB) and sodium phosphate dibasic (Na2HPO4) were purchased from Sigma-Aldrich (USA). S-butyrylthiocholine chloride (BTCC) from Sigma-Aldrich (Switzerland), acetylthiocholine iodide (ATCI) from Sigma-Aldrich (United Kingdom) and sodium phosphate monobasic (NaH2PO4) from Sigma-Aldrich (Germany) were purchased. […] Ethanol was used to replace the sample as a control in this assay.

For assay [2], the target named is T2, equine serum butyrylcholinesterase (BChE, EC 3.1.1.8) (Equus caballus, UniProt P81908).
T2 construct: equine serum butyrylcholinesterase (BChE, EC 3.1.1.8); purchased Sigma-Aldrich (USA); host or cells: equine serum
T2 sequence (P81908 whole entry): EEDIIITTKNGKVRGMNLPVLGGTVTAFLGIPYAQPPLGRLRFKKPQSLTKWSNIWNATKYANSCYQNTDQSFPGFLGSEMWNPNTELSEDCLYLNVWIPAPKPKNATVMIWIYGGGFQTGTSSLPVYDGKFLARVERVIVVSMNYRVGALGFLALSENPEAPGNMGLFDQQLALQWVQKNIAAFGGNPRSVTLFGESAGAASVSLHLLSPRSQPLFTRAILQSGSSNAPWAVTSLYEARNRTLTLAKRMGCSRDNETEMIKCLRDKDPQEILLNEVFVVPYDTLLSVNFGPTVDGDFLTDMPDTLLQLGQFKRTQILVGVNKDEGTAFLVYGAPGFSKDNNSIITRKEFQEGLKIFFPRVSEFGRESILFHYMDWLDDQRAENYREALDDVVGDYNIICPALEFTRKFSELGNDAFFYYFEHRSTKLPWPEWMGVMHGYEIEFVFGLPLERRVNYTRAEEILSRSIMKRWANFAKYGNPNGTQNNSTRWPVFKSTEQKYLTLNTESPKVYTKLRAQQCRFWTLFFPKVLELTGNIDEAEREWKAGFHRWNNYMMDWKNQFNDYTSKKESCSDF
The experiment in a line: biochemical. It is filed as biochemical. To be noted: for BChE % inhibition: single read.
From the text: as §1

The mark [3] stands for this setting: mean ± SD, n = 3, read-out: IC50 (µM) AChE.
Setting [4] is: mean ± SD, n = 3, read-out: IC50 (µM) BChE.
[5] abbreviates: average of three reads, read-out: AChE IC50 (µM) Average.
[6] abbreviates: average of three reads, read-out: AChE IC50 (µg/mL) Average (converted).
[7] abbreviates: first read, read-out: AChE IC50 (µM) First read.
The mark [8] stands for this setting: second read, read-out: AChE IC50 (µM) Second read.
The mark [9] stands for this setting: second read, read-out: AChE IC50 (µg/mL) Second read (converted).
The mark [10] stands for this setting: third read, read-out: AChE IC50 (µM) Third read.
The mark [11] stands for this setting: third read, read-out: AChE IC50 (µg/mL) Third read (converted).

T1 sequence (O42275 24-633): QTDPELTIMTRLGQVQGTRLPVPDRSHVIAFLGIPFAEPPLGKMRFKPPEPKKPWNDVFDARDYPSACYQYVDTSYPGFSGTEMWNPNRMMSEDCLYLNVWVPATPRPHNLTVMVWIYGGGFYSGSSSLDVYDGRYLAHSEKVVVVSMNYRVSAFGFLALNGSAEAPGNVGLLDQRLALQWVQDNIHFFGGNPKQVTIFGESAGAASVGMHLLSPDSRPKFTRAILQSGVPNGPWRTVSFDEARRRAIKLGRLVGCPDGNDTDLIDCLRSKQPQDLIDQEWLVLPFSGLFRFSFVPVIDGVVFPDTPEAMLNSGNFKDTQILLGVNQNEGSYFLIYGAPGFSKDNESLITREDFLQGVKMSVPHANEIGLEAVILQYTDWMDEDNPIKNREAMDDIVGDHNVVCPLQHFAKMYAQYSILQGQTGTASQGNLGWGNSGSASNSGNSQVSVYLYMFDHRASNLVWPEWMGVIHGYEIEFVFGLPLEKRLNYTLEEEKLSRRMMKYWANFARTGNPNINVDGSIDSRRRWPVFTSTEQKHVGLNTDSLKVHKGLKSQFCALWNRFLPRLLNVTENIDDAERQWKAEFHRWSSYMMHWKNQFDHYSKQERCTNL

Turning to `Cc1cccn2cc(-c3ccc(Cl)c(Cl)c3)nc12` [Compound 2k, 2-(3,4-dichlorophenyl)-8-methylimidazo[1,2-a]pyridine], the IC50 is greater than 2000 µM in assay [1] (setting [3]); 197 µM in assay [2] (N = 3, unit not given (µg/mL scale), read-out: BChE IC50, Tukey HSD homogeneous subsets (group mean) (converted)); 191 µM in assay [2] (average of three reads, read-out: BChE IC50 (µM) Average); 191 µM in assay [2] (average of three reads, read-out: BChE IC50 (µg/mL) Average (converted)); 225 µM in assay [2] (first read, read-out: BChE IC50 (µM) First read); 224 µM in assay [2] (first read, read-out: BChE IC50 (µg/mL) First read (converted)). For the same molecule, the IC50 is 191 ± 29 µM in assay [2] (setting [4]); 177 µM in assay [2] (second read, read-out: BChE IC50 (µM) Second read); 176 µM in assay [2] (second read, read-out: BChE IC50 (µg/mL) Second read (converted)); 172 µM in assay [2] (third read, read-out: BChE IC50 (µM) Third read); 171 µM in assay [2] (third read, read-out: BChE IC50 (µg/mL) Third read (converted)). Also, the BChE % inhibition in assay [2] (conc 50 (µg/mL)) is 44.12% and 38.16% and 45.75%; in assay [2] (conc 100 (µg/mL)) it was 66.91% and 74.50%; in assay [2] (conc 150 (µg/mL)) it was 80.47% and 68.54% and 70.16%; in assay [2] (conc 200 (µg/mL)), 146.65% and 115.19%.

Regarding `Cc1cccn2cc(-c3ccc(Br)cc3)nc12` [Compound 2o, 2-(4-bromophenyl)-8-methylimidazo[1,2-a]pyridine], the IC50 in assay [1] (setting [3]) and in assay [2] (setting [4]) was greater than 2000 µM each time.

As for `Cc1ccn2cc(C34CC5CC(CC(C5)C3)C4)nc2c1.O` [Compound 2c, 2-(adamantan-1-yl)-7-methylimidazo[1,2-a]pyridine hydrate], the IC50 in assay [1] (setting [5]) is 270 µM; in assay [1] (setting [6]) it was 252 µM; in assay [1] (setting [7]), 293 µM; in assay [1] (setting [3]), 270 ± 21 µM; in assay [1] (setting [8]), 267 µM; in assay [1] (setting [9]) it was 249 µM. Besides, the IC50 in assay [1] (single read, unit not printed at place (µg/mL), read-out: AChE IC50 from regression on raw-data page (converted)) was 274 µM; in assay [1] (setting [10]) it was 250 µM; in assay [1] (setting [11]), 234 µM; in assay [2] (setting [4]) it was greater than 2000 µM. Moreover, the AChE % inhibition was 20.55% and 27.0778% and 32.32% in assay [1] (conc 25 (µg/mL), single read); 41.33% and 47.36% and 42.61% in assay [1] (conc 50 (µg/mL), single read); 56.96% and 48.25% and 49.14% in assay [1] (conc 100 (µg/mL), single read); 68.34% and 71.41% and 72.20% in assay [1] (conc 150 (µg/mL), single read); 71.21% and 69.72% and 76.25% in assay [1] (conc 200 (µg/mL), single read); 76.15% and 78.73% and 78.33% in assay [1] (conc 250 (µg/mL), single read).

With `Clc1cccn2cc(-c3ccc(-c4ccccc4)cc3)nc12` [Compound 2i, 2-([1,1′-biphenyl]-4-yl)-8-chloroimidazo[1,2-a]pyridine], the IC50 in assay [1] (setting [5]) was 253 µM; in assay [1] (setting [6]), 253 µM; in assay [1] (setting [7]), 269 µM; in assay [1] (first read, read-out: AChE IC50 (µg/mL) First read (converted)), 268 µM; in assay [1] (setting [3]) it was 253 ± 25 µM; in assay [1] (setting [8]), 225 µM. The IC50 in assay [1] (setting [9]) was 224 µM; in assay [1] (setting [10]) it was 266 µM; in assay [1] (setting [11]), 265 µM; in assay [2] (setting [4]) it was greater than 2000 µM. Further, the AChE % inhibition in assay [1] (conc 50 (µg/mL), single read) was 10.30% and 14.24% and 6.35%; in assay [1] (conc 75 (µg/mL), single read), 37.90% and 58.60% and 35.60%; in assay [1] (conc 100 (µg/mL), single read), 49.40% and 76.34% and 66.48%; in assay [1] (conc 125 (µg/mL), single read) it was 81.60% and 94.74% and 74.70%; in assay [1] (conc 150 (µg/mL), single read), 92.44% and 89.16% and 84.56%; in assay [1] (conc 200 (µg/mL), single read), 97.37% and 103.61% and 101.97%.

With `COc1ccc(-c2cn3ccccc3n2)cc1` [Compound 2l, 2-(4-methoxyphenyl)imidazo[1,2-a]pyridine], the IC50 in assay [1] (setting [3]) and in assay [2] (setting [4]) was greater than 2000 µM in each case.
